Tested on: HeLa
Test: MTS proliferation assay, HeLa
Assay type: cell-based, human
Conditions: 72 h incubation, read-out: MTS proliferation assay IC 50 HeLa
In short: (§1)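 Human lines, EGFP-transfected or not, grow in RPMI-1640 plus 5% or 10% FCS and 2-mercaptoethanol. They receive test compound for 72 h at final concentrations of 10, 3, 1 and 0.3 μM, and MTS conversion is measured at 492 nm.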

Structure (SMILES)	IC50 [nM]
Nc1ccc(C(=O)Cn2c(-c3nonc3N)nc3ccccc32)cc1[N+](=O)[O-] [Example 65]	10 to 100
COc1ccc(C(=O)Cn2c(-c3nonc3N)nc3ccccc32)cc1OC [Example 76]	100 to 1000

Tested on: Jily
Test: MTS proliferation assay, Jily
Assay type: cell-based
Conditions: 72 h incubation, read-out: MTS proliferation assay IC 50 Jily
In short: (§2)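 Seed cells in complete RPMI-1640 medium and allow 24 h attachment. Add compounds to final 10 μM, 3 μM, 1 μM or 0.3 μM and incubate 72 h at 37° C. Add MTS, incubate 3 h more, then measure absorption at 492 nm.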

Structure (SMILES)	IC50 [nM]
Nc1ccc(C(=O)Cn2c(-c3nonc3N)nc3ccccc32)cc1[N+](=O)[O-] [Example 65]	< 10
COc1ccc(C(=O)Cn2c(-c3nonc3N)nc3ccccc32)cc1OC [Example 76]	10 to 100

Tested on: adherent cells or suspension cells
Test: Hoechst 33342 nuclear staining (fraction of apoptotic nuclei)
Assay type: cell-based
Design: key: 0 relating to no activity; 1 relating to weak activity comprising less than 70% of the cells; score 2 relating to strong activity comprising more than 70% of the cells
Conditions: H460, conc 0.01 μm

Structure (SMILES)	Hoechst 33342 nuclear staining score
Nc1ccc(C(=O)Cn2c(-c3nonc3N)nc3ccccc32)cc1[N+](=O)[O-] [Example 65]	2 (score 2 relating to strong activity comprising more than 70% of the cells)
COc1ccc(C(=O)Cn2c(-c3nonc3N)nc3ccccc32)cc1OC [Example 76]	0

Same assay, conditions: H460, conc 0.1 μm

Structure (SMILES)	Hoechst 33342 nuclear staining score
Nc1ccc(C(=O)Cn2c(-c3nonc3N)nc3ccccc32)cc1[N+](=O)[O-] [Example 65]	2 (score 2 relating to strong activity comprising more than 70% of the cells)
COc1ccc(C(=O)Cn2c(-c3nonc3N)nc3ccccc32)cc1OC [Example 76]	1 (1 relating to weak activity comprising less than 70% of the cells)

Same assay, conditions: H460, conc 1 μm

Structure (SMILES)	Hoechst 33342 nuclear staining score
Nc1ccc(C(=O)Cn2c(-c3nonc3N)nc3ccccc32)cc1[N+](=O)[O-] [Example 65]	2 (score 2 relating to strong activity comprising more than 70% of the cells)
COc1ccc(C(=O)Cn2c(-c3nonc3N)nc3ccccc32)cc1OC [Example 76]	2 (score 2 relating to strong activity comprising more than 70% of the cells)

Same assay, conditions: HeLa, conc 0.01 μm

Structure (SMILES)	Hoechst 33342 nuclear staining score
Nc1ccc(C(=O)Cn2c(-c3nonc3N)nc3ccccc32)cc1[N+](=O)[O-] [Example 65]	0
COc1ccc(C(=O)Cn2c(-c3nonc3N)nc3ccccc32)cc1OC [Example 76]	0

Same assay, conditions: HeLa, conc 0.1 μm

Structure (SMILES)	Hoechst 33342 nuclear staining score
Nc1ccc(C(=O)Cn2c(-c3nonc3N)nc3ccccc32)cc1[N+](=O)[O-] [Example 65]	2 (score 2 relating to strong activity comprising more than 70% of the cells)
COc1ccc(C(=O)Cn2c(-c3nonc3N)nc3ccccc32)cc1OC [Example 76]	0

Same assay, conditions: HeLa, conc 1 μm

Structure (SMILES)	Hoechst 33342 nuclear staining score
Nc1ccc(C(=O)Cn2c(-c3nonc3N)nc3ccccc32)cc1[N+](=O)[O-] [Example 65]	2 (score 2 relating to strong activity comprising more than 70% of the cells)
COc1ccc(C(=O)Cn2c(-c3nonc3N)nc3ccccc32)cc1OC [Example 76]	2 (score 2 relating to strong activity comprising more than 70% of the cells)

Same assay, conditions: Jily, conc 0.01 μm

Structure (SMILES)	Hoechst 33342 nuclear staining score
Nc1ccc(C(=O)Cn2c(-c3nonc3N)nc3ccccc32)cc1[N+](=O)[O-] [Example 65]	2 (score 2 relating to strong activity comprising more than 70% of the cells)
COc1ccc(C(=O)Cn2c(-c3nonc3N)nc3ccccc32)cc1OC [Example 76]	0

Same assay, conditions: Jily, conc 0.1 μm

Structure (SMILES)	Hoechst 33342 nuclear staining score
Nc1ccc(C(=O)Cn2c(-c3nonc3N)nc3ccccc32)cc1[N+](=O)[O-] [Example 65]	2 (score 2 relating to strong activity comprising more than 70% of the cells)
COc1ccc(C(=O)Cn2c(-c3nonc3N)nc3ccccc32)cc1OC [Example 76]	2 (score 2 relating to strong activity comprising more than 70% of the cells)

Same assay, conditions: Jily, conc 1 μm

Structure (SMILES)	Hoechst 33342 nuclear staining score
Nc1ccc(C(=O)Cn2c(-c3nonc3N)nc3ccccc32)cc1[N+](=O)[O-] [Example 65]	2 (score 2 relating to strong activity comprising more than 70% of the cells)
COc1ccc(C(=O)Cn2c(-c3nonc3N)nc3ccccc32)cc1OC [Example 76]	2 (score 2 relating to strong activity comprising more than 70% of the cells)

Same assay, conditions: Jurkat, conc 0.01 μm

Structure (SMILES)	Hoechst 33342 nuclear staining score
Nc1ccc(C(=O)Cn2c(-c3nonc3N)nc3ccccc32)cc1[N+](=O)[O-] [Example 65]	2 (score 2 relating to strong activity comprising more than 70% of the cells)
COc1ccc(C(=O)Cn2c(-c3nonc3N)nc3ccccc32)cc1OC [Example 76]	0

Same assay, conditions: Jurkat, conc 0.1 μm

Structure (SMILES)	Hoechst 33342 nuclear staining score
Nc1ccc(C(=O)Cn2c(-c3nonc3N)nc3ccccc32)cc1[N+](=O)[O-] [Example 65]	2 (score 2 relating to strong activity comprising more than 70% of the cells)
COc1ccc(C(=O)Cn2c(-c3nonc3N)nc3ccccc32)cc1OC [Example 76]	2 (score 2 relating to strong activity comprising more than 70% of the cells)

Same assay, conditions: Jurkat, conc 1 μm

Structure (SMILES)	Hoechst 33342 nuclear staining score
Nc1ccc(C(=O)Cn2c(-c3nonc3N)nc3ccccc32)cc1[N+](=O)[O-] [Example 65]	2 (score 2 relating to strong activity comprising more than 70% of the cells)
COc1ccc(C(=O)Cn2c(-c3nonc3N)nc3ccccc32)cc1OC [Example 76]	2 (score 2 relating to strong activity comprising more than 70% of the cells)

Same assay, conditions: MRC5, conc 0.01 μm

Structure (SMILES)	Hoechst 33342 nuclear staining score
Nc1ccc(C(=O)Cn2c(-c3nonc3N)nc3ccccc32)cc1[N+](=O)[O-] [Example 65]	0
COc1ccc(C(=O)Cn2c(-c3nonc3N)nc3ccccc32)cc1OC [Example 76]	0

Same assay, conditions: MRC5, conc 0.1 μm

Structure (SMILES)	Hoechst 33342 nuclear staining score
Nc1ccc(C(=O)Cn2c(-c3nonc3N)nc3ccccc32)cc1[N+](=O)[O-] [Example 65]	2 (score 2 relating to strong activity comprising more than 70% of the cells)
COc1ccc(C(=O)Cn2c(-c3nonc3N)nc3ccccc32)cc1OC [Example 76]	0

Same assay, conditions: MRC5, conc 1 μm

Structure (SMILES)	Hoechst 33342 nuclear staining score
Nc1ccc(C(=O)Cn2c(-c3nonc3N)nc3ccccc32)cc1[N+](=O)[O-] [Example 65]	2 (score 2 relating to strong activity comprising more than 70% of the cells)

Same assay, conditions: PBLs, conc 0.01 μm

Structure (SMILES)	Hoechst 33342 nuclear staining score
Nc1ccc(C(=O)Cn2c(-c3nonc3N)nc3ccccc32)cc1[N+](=O)[O-] [Example 65]	0
COc1ccc(C(=O)Cn2c(-c3nonc3N)nc3ccccc32)cc1OC [Example 76]	0

Same assay, conditions: PBLs, conc 0.1 μm

Structure (SMILES)	Hoechst 33342 nuclear staining score
Nc1ccc(C(=O)Cn2c(-c3nonc3N)nc3ccccc32)cc1[N+](=O)[O-] [Example 65]	0
COc1ccc(C(=O)Cn2c(-c3nonc3N)nc3ccccc32)cc1OC [Example 76]	0

Same assay, conditions: PBLs, conc 1 μm

Structure (SMILES)	Hoechst 33342 nuclear staining score
Nc1ccc(C(=O)Cn2c(-c3nonc3N)nc3ccccc32)cc1[N+](=O)[O-] [Example 65]	0
COc1ccc(C(=O)Cn2c(-c3nonc3N)nc3ccccc32)cc1OC [Example 76]	0

Tested on: MRC5
Test: MTS proliferation assay, MRC5
Assay type: cell-based
Conditions: MRC5, 72 h incubation; read-out: MTS proliferation assay IC 50 MRC5
In short: as §2

Structure (SMILES)	IC50 [nM]
Nc1ccc(C(=O)Cn2c(-c3nonc3N)nc3ccccc32)cc1[N+](=O)[O-] [Example 65]	< 10
COc1ccc(C(=O)Cn2c(-c3nonc3N)nc3ccccc32)cc1OC [Example 76]	100 to 1000

Tested on: HT1080
Test: MTS proliferation assay, HT1080
Assay type: cell-based, human
Conditions: HT1080, 72 h incubation; read-out: MTS proliferation assay IC 50 HT1080
In short: as §1

Structure (SMILES)	IC50 [nM]
Nc1ccc(C(=O)Cn2c(-c3nonc3N)nc3ccccc32)cc1[N+](=O)[O-] [Example 65]	< 10
COc1ccc(C(=O)Cn2c(-c3nonc3N)nc3ccccc32)cc1OC [Example 76]	100 to 1000

Tested on: Jurkat
Test: MTS proliferation assay, Jurkat
Assay type: cell-based, human
Conditions: 72 h incubation, read-out: MTS proliferation assay IC 50 Jurkat
In short: as §1

Structure (SMILES)	IC50 [nM]
Nc1ccc(C(=O)Cn2c(-c3nonc3N)nc3ccccc32)cc1[N+](=O)[O-] [Example 65]	< 10
COc1ccc(C(=O)Cn2c(-c3nonc3N)nc3ccccc32)cc1OC [Example 76]	100 to 1000

— patent publication USRE42890E1, “Furazanobenzimidazoles” (Basilea Pharmaceutica AG, priority 2003, dated 2011)
